Key:
Assay type in all cases: in vivo
[1] = tested on: Echinochloa crus-galli var. crus-galli; assay: Test Example 3: herbicidal effect by foliage application, Wagner pot (symbol H); details: application herbicide amount 320 g/ha; for H (Echinochloa crus-galli var. crus-galli) herbicidal effect grade: Table 24
In short: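 Herbicidal activity was rated three weeks after a foliar spray of diluted emulsion concentrate, applied at a predetermined dose to plants grown for 14 days from seed in waterlogged alluvial soil within a 25–30 °C greenhouse.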

Alopecurus myosuroides = assay: Test Example 5: herbicidal effect by foliage application, plastic box (symbol J); details: 320 g/ha, 3 weeks after application
In short: (§1)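 Effect is rated 3 weeks after a foliar spray of water-diluted emulsion concentrate at a predetermined herbicide amount. Plants had grown 14 days in a 25° C. to 30° C. greenhouse from seed in sterilized diluvial soil.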

corn = assay: Test Example 5: effect on crop by foliage application, plastic box (symbol c); details: 320 g/ha, 3 weeks after application
In short: (§2)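 Soil: sterilized diluvial. Container: plastic box, 21 × 13 cm, 7 cm deep. Sowing: spot-like, ~1.5 cm cover. Growth: greenhouse, 25° C. to 30° C.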

wheat [2] = assay: Test Example 4: effect on crop by soil treatment (symbol e); details: application herbicide amount 320 g/ha
In short: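 Crop seeds, among them rice, wheat, beet and rapeseed, were sown in sterilized diluvial soil and covered with about 1.5 cm of soil. Boxes were kept in a greenhouse at 25° C. to 30° C. for plant growth.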

Amaranthus retroflexus = assay: Test Example 5: herbicidal effect by foliage application, plastic box (symbol N); details: 320 g/ha, 3 weeks after application
In short: as §1

rice plant = assay: Test Example 5: effect on crop by foliage application, plastic box (symbol b); details: 320 g/ha, 3 weeks after application
In short: as §2

beet = assay: Test Example 5: effect on crop by foliage application, plastic box (symbol f); details: 320 g/ha, 3 weeks after application
In short: as §2

Scirpus juncoides = assay: Test Example 2: herbicidal activity, application during weed generation in submerged conditions (symbol B); details: Table 23; application herbicide amount 320 g/ha; grade 0-5 by criteria of Test Example 1
In short: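 Visual herbicidal ratings, taken three weeks after dosing, reflect post-emergence water-surface application to seedlings at one to two leaves. Conditions: co-sown weeds in alluvial soil flooded to 4 cm, greenhouse held at 25° C. to 30° C.; compound given as water-diluted emulsion at a fixed herbicide amount.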

wheat [3] = assay: Test Example 5: effect on crop by foliage application, plastic box (symbol e); details: 320 g/ha, 3 weeks after application
In short: as §2

Stellaria media = assay: Test Example 5: herbicidal effect by foliage application, plastic box (symbol P); details: 320 g/ha, 3 weeks after application
In short: as §1

[4] = tested on: directly sowed rice plant; assay: Test Example 3: effect on crop by foliage application, Wagner pot (symbol b); details: application herbicide amount 320 g/ha; for b (directly sowed rice plant) effect on crop grade: Table 24
In short: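 Plants are raised from seed in flooded paddy conditions: water stands 0.1–0.5 cm over alluvial soil, and the pot is kept in a greenhouse at 25–30 °C. Species sown are barnyardgrass (E. crus-galli var. crus-galli), Leptochloa chinensis, Cyperus difformis and rice.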

transplanted rice plant = assay: Test Example 1: effect on crop, application before weed generation in submerged conditions (symbol a); details: application herbicide amount 320 g/ha
In short: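 Alluvial soil pots flooded to 4 cm water, sown with Echinochloa oryzacola, Scirpus juncoides and Monochoria vaginalis, then transplanted with 2.5 leaf stage rice seedlings; pre-emergence application. Greenhouse 25° C. to 30° C.; scored 0–5 by herbicidal ratio 3 weeks after application.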

[5] = tested on: Echinochloa oryzacola Vasing.; assay: Test Example 1: herbicidal activity, application before weed generation in submerged conditions (symbol A); details: application herbicide amount 320 g/ha
In short: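 Ratings (5: ≥90%, near complete withering; 4: 70–<90%; 3: 40–<70%; 2: 20–<40%; 1: 5–<20%; 0: ≤5%) were assigned 3 weeks after the diluted emulsion was applied to the water surface of freshly sown, submerged pots.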

| SMILES | H (Echinochloa crus-galli var. crus-galli) herbicidal effect grade [1] | J: Alopecurus myosuroides, herbicidal effect grade (Alopecurus myosuroides) | c: corn, effect on crop grade (corn) | Effect on crop grade, e: wheat (wheat [2]) | N: Amaranthus retroflexus, herbicidal effect grade (Amaranthus retroflexus) | b: directly sowed rice plant, effect on crop grade (rice plant) | f: beet, effect on crop grade (beet) | Herbicidal effect grade, B: Scirpus juncoides (Scirpus juncoides) | e: wheat, effect on crop grade (wheat [3]) | P: Stellaria media, herbicidal effect grade (Stellaria media) | b (directly sowed rice plant) effect on crop grade [4] | herbicidal effect on H (Echinochloa crus-galli var. crus-galli), grade 0-5 [1] | Effect grade on crop, a: transplanted rice plant (transplanted rice plant) | e (wheat) effect on crop grade (wheat [2]) | Herbicidal effect grade, A: Echinochloa oryzacola Vasing. [5] | effect on crop b (directly sowed rice plant), grade 0-5 [4] | also measured |
| --- | --- | --- | --- | --- | --- | --- | --- | --- | --- | --- | --- | --- | --- | --- | --- | --- | --- |
| CC(CC1CC(O)=C(c2c(C)cc(Br)cc2C)C1=O)=NOCC(=O)N(C)C (mixture of isomers) [9-029] | 4 (Herbicidal ratio of 70% or higher and lower than 90%) | 1 (Herbicidal ratio of 5% or higher and lower than 20%) | 4 (Herbicidal ratio of 70% or higher and lower than 90%) | 0 (Herbicidal ratio of 5% or lower (almost no effect)) | 0 (Herbicidal ratio of 5% or lower (almost no effect)) | 3 (Herbicidal ratio of 40% or higher and lower than 70%) | 0 (Herbicidal ratio of 5% or lower (almost no effect)) | 0 (Herbicidal ratio of 5% or lower (almost no effect)) | 4 (Herbicidal ratio of 70% or higher and lower than 90%) | 0 (Herbicidal ratio of 5% or lower (almost no effect)) | 3 (Herbicidal ratio of 40% or higher and lower than 70%) |  |  |  |  |  |  |
| CON=C(C)CC1CC(OC)=C(c2c(C)cc(C)cc2C)C1=O (stereo not drawn) [1-001, 2-mesityl-3-methoxy-5-{2-(methoxyimino)propyl}cyclopent-2-enone] |  | 0 (Herbicidal ratio of 5% or lower (almost no effect)) | 0 (Herbicidal ratio of 5% or lower (almost no effect)) |  | 0 (Herbicidal ratio of 5% or lower (almost no effect)) | 0 (Herbicidal ratio of 5% or lower (almost no effect)) | 0 (Herbicidal ratio of 5% or lower (almost no effect)) | 0 (Herbicidal ratio of 5% or lower (almost no effect)) | 0 (Herbicidal ratio of 5% or lower (almost no effect)) | 0 (Herbicidal ratio of 5% or lower (almost no effect)) |  | 0 (Herbicidal ratio of 5% or lower (almost no effect)) | 0 (Herbicidal ratio of 5% or lower (almost no effect)) | 0 (Herbicidal ratio of 5% or lower (almost no effect)) | 0 (Herbicidal ratio of 5% or lower (almost no effect)) | 0 (Herbicidal ratio of 5% or lower (almost no effect)) |  |
| CON=C(C)CC1CC(O)=C(c2c(C)cc(C)cc2C)C1=O (stereo not drawn) [1-002, 3-hydroxy-2-mesityl-5-{2-(methoxyimino)propyl}cyclopent-2-enone] |  | 5 (Herbicidal ratio of 90% or more (almost completely withered)) | 5 (Herbicidal ratio of 90% or more (almost completely withered)) |  | 5 (Herbicidal ratio of 90% or more (almost completely withered)) | 5 (Herbicidal ratio of 90% or more (almost completely withered)) | 5 (Herbicidal ratio of 90% or more (almost completely withered)) | 3 (Herbicidal ratio of 40% or higher and lower than 70%) | 5 (Herbicidal ratio of 90% or more (almost completely withered)) | 4 (Herbicidal ratio of 70% or higher and lower than 90%) |  | 5 (Herbicidal ratio of 90% or more (almost completely withered)) | 5 (Herbicidal ratio of 90% or more (almost completely withered)) | 4 (Herbicidal ratio of 70% or higher and lower than 90%) | 5 (Herbicidal ratio of 90% or more (almost completely withered)) | 5 (Herbicidal ratio of 90% or more (almost completely withered)) |  |
| CC(CC1CC(O)=C(c2c(C)cc(C)cc2C)C1=O)=NOCc1ccccc1F (stereo not drawn) [1-026] |  | 5 (Herbicidal ratio of 90% or more (almost completely withered)) | 3 (Herbicidal ratio of 40% or higher and lower than 70%) |  | 0 (Herbicidal ratio of 5% or lower (almost no effect)) | 5 (Herbicidal ratio of 90% or more (almost completely withered)) |  | 3 (Herbicidal ratio of 40% or higher and lower than 70%) | 2 (Herbicidal ratio of 20% or higher and lower than 40%) | 1 (Herbicidal ratio of 5% or higher and lower than 20%) |  | 5 (Herbicidal ratio of 90% or more (almost completely withered)) | 5 (Herbicidal ratio of 90% or more (almost completely withered)) | 2 (Herbicidal ratio of 20% or higher and lower than 40%) | 5 (Herbicidal ratio of 90% or more (almost completely withered)) | 5 (Herbicidal ratio of 90% or more (almost completely withered)) |  |
| CON=C(C)CC1CC(OC(=O)COc2ccc(Cl)cc2Cl)=C(c2c(C)cc(C)cc2C)C1=O (stereo not drawn) [1-075] |  |  |  |  |  |  |  | 4 (Herbicidal ratio of 70% or higher and lower than 90%) |  |  |  | 5 (Herbicidal ratio of 90% or more (almost completely withered)) | 5 (Herbicidal ratio of 90% or more (almost completely withered)) | 4 (Herbicidal ratio of 70% or higher and lower than 90%) | 5 (Herbicidal ratio of 90% or more (almost completely withered)) | 5 (Herbicidal ratio of 90% or more (almost completely withered)) | J: Alopecurus myosuroides, herbicidal effect (criteria 0-5) (Alopecurus myosuroides): 5 (Herbicidal ratio of 90% or more (almost completely withered)); c: corn, effect on crop (criteria 0-5) (corn): 4 (Herbicidal ratio of 70% or higher and lower than 90%); N: Amaranthus retroflexus, herbicidal effect (criteria 0-5) (Amaranthus retroflexus): 4 (Herbicidal ratio of 70% or higher and lower than 90%); b: directly sowed rice plant, effect on crop (criteria 0-5) (rice plant): 5 (Herbicidal ratio of 90% or more (almost completely withered)); e: wheat, effect on crop (criteria 0-5) (wheat [3]): 5 (Herbicidal ratio of 90% or more (almost completely withered)); P: Stellaria media, herbicidal effect (criteria 0-5) (Stellaria media): 1 (Herbicidal ratio of 5% or higher and lower than 20%) |
| CON=C(CC1CC(O)=C(c2c(C)cc(-n3cc(Cl)cn3)cc2C)C1=O)C(C)C (stereo not drawn) [9-004] | 5 (Herbicidal ratio of 90% or more (almost completely withered)) | 5 (Herbicidal ratio of 90% or more (almost completely withered)) | 5 (Herbicidal ratio of 90% or more (almost completely withered)) | 0 (Herbicidal ratio of 5% or lower (almost no effect)) |  |  | 0 (Herbicidal ratio of 5% or lower (almost no effect)) | 2 (Herbicidal ratio of 20% or higher and lower than 40%) | 3 (Herbicidal ratio of 40% or higher and lower than 70%) | 2 (Herbicidal ratio of 20% or higher and lower than 40%) | 5 (Herbicidal ratio of 90% or more (almost completely withered)) |  | 5 (Herbicidal ratio of 90% or more (almost completely withered)) |  | 5 (Herbicidal ratio of 90% or more (almost completely withered)) |  |  |

From US11000033B2, “Ketone or oxime compound, and herbicide” (NISSAN CHEMICAL CORPORATION, priority 2014, dated 2021)
